Several values for one entry are separate records, joined by “and”; a condition that tells them apart may be missing. Identical values can stand only once. Toxic doses and inconclusive results are not listed.
Test system: L1210 leukemia ip in BDF1 mice, survival T/C
Assay: NCI In Vivo Anticancer Drug Screen. Data for tumor model L1210 Leukemia (intraperitoneal) in B6D2F1 (BDF1) mice
Conditions: endpoint: mean survival time, higher = longer survival
How it was run: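 Antitumor effect is assessed in tumor-bearing animals. Survival in the compound arm is compared with a vehicle-dosed control arm and expressed as their quotient.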

[1] = dose: 100.0 mg/kg/injection, schedule: Q01DX001 (ip), vehicle: saline with Tween-80
[2] = dose: 200.0 mg/kg/injection, schedule: Q01DX001 (ip), vehicle: saline with Tween-80
[3] = dose: 400.0 mg/kg/injection, schedule: Q01DX001 (ip), vehicle: saline with Tween-80
[4] = dose: 100.0 mg/kg/injection, schedule: Q04DX002 (ip), vehicle: saline with Tween-80

COc1cc([C@@H]2c3cc4c(cc3[C@H](SC(=N)N)[C@H]3COC(=O)[C@H]23)OCO4)cc(OC)c1OC
T/C (dose: 5.0 mg/kg/injection, schedule: Q01DX Z (ip), vehicle: carboxymethylcellulose (CMC)): 98 % of control | T/C (dose: 6.0 mg/kg/injection, schedule: Q01DX Z (ip), vehicle: carboxymethylcellulose (CMC)): 109 % of control | T/C (dose: 10.0 mg/kg/injection, schedule: Q01DX Z (ip), vehicle: carboxymethylcellulose (CMC)): 103 % of control | T/C (dose: 12.0 mg/kg/injection, schedule: Q01DX Z (ip), vehicle: carboxymethylcellulose (CMC)): 112 % of control | T/C (dose: 18.0 mg/kg/injection, schedule: Q01DX Z (ip), vehicle: carboxymethylcellulose (CMC)): 108 % of control | T/C (dose: 18.0 mg/kg/injection, schedule: Q01DX Z (ip), vehicle: methylcellulose (MC)): 103 % of control | T/C (dose: 24.0 mg/kg/injection, schedule: Q01DX Z (ip), vehicle: carboxymethylcellulose (CMC)): 112 % of control | T/C (dose: 25.0 mg/kg/injection, schedule: Q01DX009 (ip), vehicle: saline): 118 % of control | T/C (dose: 27.0 mg/kg/injection, schedule: Q01DX Z (ip), vehicle: carboxymethylcellulose (CMC)): 100 % of control | T/C (dose: 37.5 mg/kg/injection, schedule: Q04DX003 (ip), vehicle: saline): 104 % of control | T/C (dose: 48.0 mg/kg/injection, schedule: Q01DX Z (ip), vehicle: carboxymethylcellulose (CMC)): 109 % of control | T/C (dose: 50.0 mg/kg/injection, schedule: Q01DX009 (ip), vehicle: saline): 88 % of control | T/C (dose: 60.0 mg/kg/injection, schedule: Q01DX Z (ip), vehicle: methylcellulose (MC)): 109 % of control | T/C (dose: 75.0 mg/kg/injection, schedule: Q04DX003 (ip), vehicle: saline): 105 % of control | T/C (dose: 150.0 mg/kg/injection, schedule: Q04DX003 (ip), vehicle: saline): 89 % of control

CC1(C)N=C(N)N=C(N)N1c1cccc(Cl)c1Cl
T/C (dose: 5.0 mg/kg/injection, schedule: Q01DX009 (ip), vehicle: saline): 95 % of control | T/C (dose: 10.0 mg/kg/injection, schedule: Q01DX009 (ip), vehicle: saline): 104 % of control | T/C (dose: 20.0 mg/kg/injection, schedule: Q01DX009 (ip), vehicle: saline): 107 % of control

N#CCCOCC(OCCC#N)C(COCCC#N)OCCC#N (stereo unspecified)
T/C (dose: 50.0 mg/kg/injection, schedule: Q01DX001 (ip), vehicle: carboxymethylcellulose (CMC)): 95 % of control | T/C (dose: 100.0 mg/kg/injection, schedule: Q01DX001 (ip), vehicle: carboxymethylcellulose (CMC)): 97 % of control | T/C (dose: 200.0 mg/kg/injection, schedule: Q01DX001 (ip), vehicle: carboxymethylcellulose (CMC)): 97 % of control | T/C (dose: 400.0 mg/kg/injection, schedule: Q01DX001 (ip), vehicle: carboxymethylcellulose (CMC)): 92 % of control

CCCP(=O)(CCC)C1CCCCC1
T/C [1]: 99 % of control | T/C [2]: 98 % of control | T/C [3]: 86 % of control

C1CN(P(N2CCOCC2)N2CCOCC2)CCO1
T/C (dose: 100.0 mg/kg/injection, schedule: Q01DX009 (ip), vehicle: saline): 104 % of control | T/C (dose: 200.0 mg/kg/injection, schedule: Q01DX009 (ip), vehicle: saline): 98 % of control | T/C (dose: 400.0 mg/kg/injection, schedule: Q01DX009 (ip), vehicle: saline): 98 % of control

CCCOC(=O)C(OC(=O)c1ccccc1)C(OC(=O)c1ccccc1)C(=O)OCCC (stereo unspecified)
T/C (dose: 100.0 mg/kg/injection, schedule: Q01DX001 (ip), vehicle: saline): 104 % of control | T/C (dose: 200.0 mg/kg/injection, schedule: Q01DX001 (ip), vehicle: saline): 96 % of control | T/C (dose: 400.0 mg/kg/injection, schedule: Q01DX001 (ip), vehicle: saline): 94 % of control

CCC[N+](C)(C)C1CCCCC1
T/C (dose: 75.0 mg/kg/injection, schedule: Q01DX001 (ip), vehicle: saline): 96 % of control and 94 % of control

CCOCCOCCOC(C)Oc1ccc(C(=O)OC)cc1 (stereo unspecified)
T/C (dose: 100.0 mg/kg/injection, schedule: Q04DX002 (ip), vehicle: saline): 99 % of control | T/C (dose: 200.0 mg/kg/injection, schedule: Q04DX002 (ip), vehicle: saline): 96 % of control | T/C (dose: 400.0 mg/kg/injection, schedule: Q04DX002 (ip), vehicle: saline): 89 % of control

CCc1nc(=S)c2[nH]cnc2[nH]1
T/C (dose: 100.0 mg/kg/injection, schedule: Q04DX003 (ip), vehicle: saline with Tween-80): 93 % of control | T/C (dose: 200.0 mg/kg/injection, schedule: Q04DX003 (ip), vehicle: saline with Tween-80): 90 % of control | T/C (dose: 400.0 mg/kg/injection, schedule: Q04DX003 (ip), vehicle: saline with Tween-80): 93 % of control

O=[N+]([O-])C1CC(Cl)CCC1SSC1CCC(Cl)CC1[N+](=O)[O-] (stereo unspecified)
T/C [4]: 95 % of control | T/C (dose: 200.0 mg/kg/injection, schedule: Q04DX002 (ip), vehicle: saline with Tween-80): 98 % of control | T/C (dose: 400.0 mg/kg/injection, schedule: Q04DX002 (ip), vehicle: saline with Tween-80): 92 % of control

CCCCCCCNC(=O)OCC
T/C (dose: 55.0 mg/kg/injection, schedule: Q01DX Z (ip), vehicle: methylcellulose (MC)): 93 % of control | T/C (dose: 83.0 mg/kg/injection, schedule: Q01DX Z (ip), vehicle: methylcellulose (MC)): 93 % of control | T/C (dose: 125.0 mg/kg/injection, schedule: Q01DX Z (ip), vehicle: methylcellulose (MC)): 104 % of control

CCC(CCc1ccc(OC)c(OC)c1)C(=O)O (stereo unspecified)
T/C [1]: 93 % of control | T/C [2]: 98 % of control | T/C [3]: 98 % of control

CN1CCC(CO)(c2ccccc2)C1 (stereo unspecified)
T/C (dose: 75.0 mg/kg/injection, schedule: Q01DX001 (ip), vehicle: carboxymethylcellulose (CMC)): 96 % of control | T/C (dose: 150.0 mg/kg/injection, schedule: Q01DX001 (ip), vehicle: carboxymethylcellulose (CMC)): 98 % of control

NC(CSC(c1ccccc1)(c1ccccc1)c1ccccc1)C(=O)OC(c1ccccc1)c1ccccc1 (stereo unspecified)
T/C (dose: 264.0 mg/kg/injection, schedule: Q01DX001 (ip), vehicle: carboxymethylcellulose (CMC)): 113 % of control

COc1cc(/C=N/N=C(N)N)cc(I)c1O
T/C (dose: 15.0 mg/kg/injection, schedule: Q01DX Z (ip), vehicle: carboxymethylcellulose (CMC)): 100 % of control | T/C (dose: 30.0 mg/kg/injection, schedule: Q01DX Z (ip), vehicle: carboxymethylcellulose (CMC)): 106 % of control | T/C (dose: 30.0 mg/kg/injection, schedule: Q01DX Z (oral), vehicle: carboxymethylcellulose (CMC)): 102 % of control | T/C (dose: 60.0 mg/kg/injection, schedule: Q01DX Z (ip), vehicle: carboxymethylcellulose (CMC)): 112 % of control | T/C (dose: 60.0 mg/kg/injection, schedule: Q01DX Z (oral), vehicle: carboxymethylcellulose (CMC)): 95 % of control | T/C (dose: 120.0 mg/kg/injection, schedule: Q01DX Z (oral), vehicle: carboxymethylcellulose (CMC)): 98 % of control

N#CCCc1c(-c2ccccc2)nc(N)[nH]c1=O
T/C (dose: 100.0 mg/kg/injection, schedule: Q04DX003 (ip), vehicle: carboxymethylcellulose (CMC)): 92 % of control | T/C (dose: 200.0 mg/kg/injection, schedule: Q04DX003 (ip), vehicle: carboxymethylcellulose (CMC)): 92 % of control | T/C (dose: 400.0 mg/kg/injection, schedule: Q04DX003 (ip), vehicle: carboxymethylcellulose (CMC)): 87 % of control

CN(C)CCC(CNC1=NCCN1)c1cccc2ccccc12 (stereo unspecified)
T/C (dose: 25.0 mg/kg/injection, schedule: Q04DX002 (ip), vehicle: saline with Tween-80): 108 % of control | T/C (dose: 50.0 mg/kg/injection, schedule: Q04DX002 (ip), vehicle: saline with Tween-80): 101 % of control | T/C [4]: 101 % of control

CC(C)CC1NC(=O)C(Cc2ccc(OCc3ccccc3)cc2)NC1=O (stereo unspecified)
T/C (dose: 100.0 mg/kg/injection, schedule: Q01DX009 (ip), vehicle: saline with Tween-80): 102 % of control | T/C (dose: 100.0 mg/kg/injection, schedule: Q04DX003 (ip), vehicle: saline): 104 % of control | T/C (dose: 200.0 mg/kg/injection, schedule: Q01DX009 (ip), vehicle: saline with Tween-80): 96 % of control | T/C (dose: 200.0 mg/kg/injection, schedule: Q04DX003 (ip), vehicle: saline): 88 % of control | T/C (dose: 400.0 mg/kg/injection, schedule: Q01DX009 (ip), vehicle: saline with Tween-80): 100 % of control | T/C (dose: 400.0 mg/kg/injection, schedule: Q04DX003 (ip), vehicle: saline): 94 % of control

O=C(NCCN1CC1)C(=O)NCCN1CC1
T/C (dose: 1.7 mg/kg/injection, schedule: Q04DX003 (ip), vehicle: Klucel (hydroxypropylcellulose) (HPC)): 173 % of control | T/C (dose: 2.6 mg/kg/injection, schedule: Q04DX003 (ip), vehicle: Klucel (hydroxypropylcellulose) (HPC)): 153 % of control and 186 % of control | T/C (dose: 3.12 mg/kg/injection, schedule: Q04DX003 (ip), vehicle: Klucel (hydroxypropylcellulose) (HPC)): 187 % of control | T/C (dose: 3.12 mg/kg/injection, schedule: Q04DX003 (ip), vehicle: saline with Tween-80): 179 % of control | T/C (dose: 4.0 mg/kg/injection, schedule: Q04DX003 (ip), vehicle: Klucel (hydroxypropylcellulose) (HPC)): 207 % of control | T/C (dose: 6.0 mg/kg/injection, schedule: Q04DX003 (ip), vehicle: Klucel (hydroxypropylcellulose) (HPC)): 95 % of control | T/C (dose: 6.25 mg/kg/injection, schedule: Q04DX003 (ip), vehicle: Klucel (hydroxypropylcellulose) (HPC)): 258 % of control | T/C (dose: 12.5 mg/kg/injection, schedule: Q04DX003 (ip), vehicle: Klucel (hydroxypropylcellulose) (HPC)): 122 % of control

— PubChem BioAssay AID248 (DTP/NCI, 2004)
